Where “and” joins values, the source holds several entries; their conditions need not be identical. Equal values may be shown once. ± gives the expanded uncertainty stated by the source.
Conditions: Liquid, Ebulliometric method (Recirculating still)

Compound | vapor or sublimation pressure (364.5 K) [kPa] | vapor or sublimation pressure (364.51 K) | vapor or sublimation pressure (364.52 K) [kPa]
CC(C)(C)O [2-methylpropan-2-ol] | 142.6 ± 1.5 |  | 
CC(C)C [2-methylpropane] | 1685.6 ± 7.4 | 1686.4 ± 7.4 kPa and 1686.3 ± 7.4 kPa | 1686.3 ± 7.4
CCC(C)O (configuration not stated) [butan-2-ol] |  | 74.1 ± 1.4 kPa | 

Continued, values first:

vapor or sublimation pressure (364.5 K) [kPa] | vapor or sublimation pressure (364.51 K) | vapor or sublimation pressure (364.52 K) [kPa] | Compound
 | 267.5 ± 1.8 kPa |  | CO [methanol]
 | 144.2 ± 1.5 kPa |  | CC(C)O [propan-2-ol]

— the NIST ThermoML archive (doi:10.1021/je800021r)
